Results reported in PMC12257397, “Scaffold Hopping Strategy toward New 4‑Aminoquinazolines Active Against Extracellular and Intracellular Mycobacterium tuberculosis” (ACS Medicinal Chemistry Letters, 2025).
In brackets after ≈: the same amount, converted by molar mass. Read-outs that look alike come from different tables or passages of the source.

Columns and labels:
[1] = test system: M. tuberculosis H37Rv (ATCC 27294); experiment: MIC by resazurin reduction microplate assay (REMA); assay type: cell-based; conditions: Mycobacterium tuberculosis, converted from μg/mL to μM
in vitro [2] = conditions: human
in vitro [3] = conditions: human; remark: listed apart in the source
[4] = test system: M. tuberculosis H37Rv-LP (ATCC 25618); experiment: microbe, parasite or virus in culture; assay type: cell-based; conditions: concentration inhibiting 90% of growth, 5 days, read-out: MIC parental wild-type strain H37Rv-LP
in vitro [5] = conditions: human; remark: listed apart in the source
[6] = test system: Mycobacterium avium 2285S (smooth); experiment: Antimicrobial spectrum MIC, M. avium smooth; assay type: cell-based
[7] = test system: Staphylococcus aureus (ATCC 29213); experiment: Antimicrobial spectrum MIC, S. aureus; assay type: cell-based
[8] = test system: Mycobacterium abscessus 103R; experiment: Antimicrobial spectrum MIC, M. abscessus; assay type: cell-based
[9] = test system: H37Rv-LP (ATCC 25618) inside THP-1 cells; experiment: microbe, parasite or virus in culture; assay type: cell-based; conditions: Mycobacterium tuberculosis, 72 hours
Escherichia coli RFM 795 = experiment: Antimicrobial spectrum MIC, E. coli; assay type: cell-based; conditions: Escherichia coli RFM 795 (lptD mutation)
[10] = test system: Mycobacterium smegmatis mc2155; assay type: cell-based
[11] = test system: Mycobacterium avium 2285R (rough); experiment: Antimicrobial spectrum MIC, M. avium rough; assay type: cell-based
[12] = Microsomal stability, mouse liver microsomes (MLM); assay type: in vitro ADME; conditions: male, BALB/c, pH 7.4
Experimental: (§1) 1.5. Microsomal stability
(§2) Test compound (6 μM) was incubated at 37 °C with male BALB/c mouse liver microsomes or mixed gender human liver microsomes (Xenotech LLC; 0.5 mg /mL, […] potassium phosphate buﬀer, pH 7.4) and the reaclon started with addilon of excess NADPH (2 mM, pH 7.4). Samples (35 µL) were removed at lme 0, 5, 10, 20, 30, and 60 min and mixed with 35 µL of acetonitrile, methanol, wate r s o l u lon (2:1:1) containing […] internal standard terfenadine and 0.05% v/v acelc acid. The samples were centrifuged at 4000 rpm for 10 min and the supernatant was analyzed using a 1100 HPLC and Single Quad 6120 (Agilent, USA). Compounds were tested in duplic ate, and an exponenlal decay curve ﬁt was used on the ralo of peak area of test compound to internal standard at each lme point to calculate the rate constant (k). The rate of intrinsic clearance (CLint) of each test compound was then calculated using the following equalon: CLint (mL/min/mg) = k x V where V was mL/mg protein. Verapamil (6 μM) was used as a posilve control. Incubalon of each compound with microsomes in the absence of NADPH and analyzed at 0 and 60 min was used as the negalve control.
(§3) The human biological samples were sourced ethically, and their research use was in accord with the terms of the informed consents.

[13] = Microsomal stability, human liver microsomes (HLM); assay type: in vitro ADME; conditions: both sexes, pH 7.4
Experimental: as §1, §2, §3

[14] = Mycobacterium tuberculosis, 120 h

Cc1nc(NCCc2ccc(S(N)(=O)=O)cc2)c2cc(Br)ccc2n1 [14c]
MIC [1]: > 94.9 µM

Cc1nc(NCCc2ccc(S(N)(=O)=O)cc2)c2cc(I)ccc2n1 [14d]
MIC [1]: > 85.4 µM

NS(=O)(=O)c1ccc(CCNc2ncnc3ccccc23)cc1 [14e]
MIC [1]: > 122 µM

Cc1ccc(CCNc2nc(C)nc3ccccc23)cc1 [15a]
MIC [1]: 18 µM (≈ 4.99 µg/mL)

COc1ccc2nc(C)nc(NCCc3ccc(C)cc3)c2c1 [15b]
MIC [1]: 16.3 µM (≈ 5.01 µg/mL)

Cc1ccc(CCNc2nc(C)nc3ccc(Br)cc23)cc1 [15c]
MIC [1]: 7 µM (≈ 2.49 µg/mL)

Cc1ccc(CCNc2nc(C)nc3ccc(I)cc23)cc1 [15d]
CC50 at 72 h (in vitro [2]): 10.6 µM | MIC [1]: 3.1 µM (≈ 1.25 µg/mL) | CC50 at 72 h (in vitro [3]): 10.2 µM | MIC [4, 14]: 0.48 µM (≈ 0.194 µg/mL) | CC50 at 72 h (in vitro [5]; CC50 HepG2+Gal): 6.6 µM | CC50 at 72 h (in vitro [5]; CC50 HepG2+Glu): 11.4 µM

Cc1ccc(CCNc2ncnc3ccccc23)cc1 [15e]
MIC [1]: > 38 µM

CCc1ccc(CCNc2nc(C)nc3ccccc23)cc1 [16a]
MIC [1]: 17.2 µM (≈ 5.01 µg/mL)

CCc1ccc(CCNc2nc(C)nc3ccc(OC)cc23)cc1 [16b]
MIC [1]: 15.6 µM (≈ 5.01 µg/mL)

CCc1ccc(CCNc2nc(C)nc3ccc(Br)cc23)cc1 [16c]
MIC [1]: 6.8 µM (≈ 2.52 µg/mL) | MIC [4, 14]: 2 µM (≈ 0.741 µg/mL) | MIC [4]: 2.0 µM (≈ 0.741 µg/mL) | CC50 at 72 h (in vitro [5]; CC50 HepG2+Gal): 1.6 µM | CC50 at 72 h (in vitro [5]; CC50 HepG2+Glu): 4 µM

CCc1ccc(CCNc2nc(C)nc3ccc(I)cc23)cc1 [16d]
CC50 at 72 h (in vitro [2]): 8.3 µM | MIC [1]: 6 µM (≈ 2.5 µg/mL) | CC50 at 72 h (in vitro [3]): 8.3 µM | MIC [4, 14]: 1.9 µM (≈ 0.793 µg/mL) | CC50 at 72 h (in vitro [5]; CC50 HepG2+Gal): 5.3 µM | CC50 at 72 h (in vitro [5]; CC50 HepG2+Glu): 7.4 µM

CCc1ccc(CCNc2ncnc3ccccc23)cc1 [16e]
MIC [1]: 36 µM (≈ 9.99 µg/mL)

Cc1nc(NCCc2ccc3ccccc3c2)c2ccccc2n1 [17a]
MIC [1]: 8 µM (≈ 2.51 µg/mL)

COc1ccc2nc(C)nc(NCCc3ccc4ccccc4c3)c2c1 [17b]
MIC [1]: 7.3 µM (≈ 2.51 µg/mL)

Cc1nc(NCCc2ccc3ccccc3c2)c2cc(Br)ccc2n1 [17c]
CC50 at 72 h (in vitro [2]): < 1 µM | MIC [1]: 3.2 µM (≈ 1.26 µg/mL) | CC50 at 72 h (in vitro [3]): < 1 µM | MIC [4, 14]: 2.5 µM (≈ 0.981 µg/mL) | CC50 at 72 h (in vitro [5]; CC50 HepG2+Gal): 1.8 µM | CC50 at 72 h (in vitro [5]; CC50 HepG2+Glu): 4.6 µM

Cc1nc(NCCc2ccc3ccccc3c2)c2cc(I)ccc2n1 [17d]
MIC [1]: 1.4 µM (≈ 0.615 µg/mL) | MIC [4, 14]: 1.4 µM (≈ 0.615 µg/mL) | CC50 at 72 h (in vitro [5]; CC50 HepG2+Gal): 5.2 µM | CC50 at 72 h (in vitro [5]; CC50 HepG2+Glu): 7.1 µM

c1ccc2cc(CCNc3ncnc4ccccc34)ccc2c1 [17e]
MIC [1]: > 16.7 µM

Cc1nc(NCCCc2ccccc2)c2ccccc2n1 [18a]
MIC [1]: 4.5 µM (≈ 1.25 µg/mL) | MIC [4, 14]: 1.6 µM (≈ 0.444 µg/mL) | MIC [4]: 1.6 µM (≈ 0.444 µg/mL) | CC50 at 72 h (in vitro [5]; CC50 HepG2+Gal): 2.6 µM | CC50 at 72 h (in vitro [5]; CC50 HepG2+Glu): 7.7 µM

COc1ccc2nc(C)nc(NCCCc3ccccc3)c2c1 [18b]
CIM 2285S [6]: > 100 µM | CIM 29213 [7]: > 100 µM | CC50 at 72 h (in vitro [2]): 17 µM | MIC [1]: 4.1 µM (≈ 1.26 µg/mL) | CC50 at 72 h (in vitro [3]): > 20 µM | CIM 103R [8]: > 100 µM | IC50 ([9]; growth of H37Rv-LP inside THP-1 cells inhibited by 50%, read-out: Intracellular IC50): 840 nM | IC90 ([9]; growth of H37Rv-LP inside THP-1 cells inhibited by 90%, read-out: Intracellular IC90): 1900 nM | CIM RFM 795 (Escherichia coli RFM 795): 54 µM | MIC [4, 14]: 1.5 µM (≈ 0.461 µg/mL) | CIM mc2155 [10]: > 32.5 µM | CC50 at 72 h (in vitro [5]; CC50 HepG2+Gal): 11 µM | CC50 at 72 h (in vitro [5]; CC50 HepG2+Glu): 13.9 µM | CIM 2285R [11]: > 100 µM | microsomal CLint at 6 μM ([12]; mouse, microsomes): 530 µL/min/mg | remaining at 10 min, 6 μM ([12]; mouse, microsomes): 7% | half-life at 6 μM ([12]; mouse liver microsomes, read-out: MLM t1/2): 2.6 min | microsomal CLint at 6 μM ([13]; human, microsomes): 252 µL/min/mg | remaining at 20 min, 6 μM ([13]; human, microsomes): 8% | half-life at 6 μM ([13]; human liver microsomes, read-out: HLM t1/2): 5.5 min

c1ccc(CCCNc2ncnc3ccccc23)cc1 [18e]
CC50 at 72 h (in vitro [2]): < 1 µM | MIC [1]: 19 µM (≈ 5 µg/mL) | CC50 at 72 h (in vitro [3]): < 1 µM | MIC [4, 14]: 24 µM (≈ 6.32 µg/mL) | CC50 at 72 h (in vitro [5]; CC50 HepG2+Gal): 2.5 µM | CC50 at 72 h (in vitro [5]; CC50 HepG2+Glu): 10.9 µM

NNC(=O)c1ccncc1 [19 (INH), isoniazid, reference compound]
MIC [1]: 2.3 µM (≈ 0.315 µg/mL)

CO[C@H]1/C=C/O[C@@]2(C)Oc3c(C)c(O)c4c(O)c(c(/C=N/N5CCN(C)CC5)c(O)c4c3C2=O)NC(=O)/C(C)=C\C=C\[C@H](C)[C@H](O)[C@@H](C)[C@@H](O)[C@@H](C)[C@H](OC(C)=O)[C@@H]1C [20 (RIF), rifampicin, reference compound]
MIC [4, 14]: 0.03 µM (≈ 0.0247 µg/mL) | CIM mc2155 [10]: 48.6 µM

CN[C@@H]1C[C@H]2O[C@@](C)([C@@H]1OC)n1c3ccccc3c3c4c(c5c6ccccc6n2c5c31)C(=O)NC4 [21 (STA), staurosporine, reference compound]
CC50 (in vitro [5]; CC50 HepG2+Gal): 40 nM | CC50 (in vitro [5]; CC50 HepG2+Glu): 30 nM

CC[C@H]1OC(=O)[C@H](C)[C@@H](O[C@H]2C[C@@](C)(OC)[C@@H](O)[C@H](C)O2)[C@H](C)[C@@H](O[C@@H]2O[C@H](C)C[C@H](N(C)C)[C@H]2O)[C@](C)(OC)C[C@@H](C)C(=O)[C@H](C)[C@@H](O)[C@]1(C)O [25 (CLA), Clarithromycin, reference compound]
CIM 2285S [6]: 0.4 µM | CIM 103R [8]: 0.5 µM | CIM 2285R [11]: 1.4 µM

CN[C@H](CC(C)C)C(=O)N[C@H]1C(=O)N[C@@H](CC(N)=O)C(=O)N[C@H]2C(=O)N[C@H]3C(=O)N[C@H](C(=O)N[C@H](C(=O)O)c4cc(O)cc(O)c4-c4cc3ccc4O)[C@H](O)c3ccc(c(Cl)c3)Oc3cc2cc(c3O[C@@H]2O[C@H](CO)[C@@H](O)[C@H](O)[C@H]2O[C@H]2C[C@](C)(N)[C@H](O)[C@H](C)O2)Oc2ccc(cc2Cl)[C@H]1O [26 (VAN), Vancomycin, reference compound]
CIM 29213 [7]: 2.9 µM

CC1(C)S[C@@H]2[C@H](NC(=O)[C@H](N)c3ccccc3)C(=O)N2[C@H]1C(=O)O [27 (AMP), Ampicillin, reference compound]
CIM RFM 795 (Escherichia coli RFM 795): 12.0 µM
